The values below are quoted from earlier work in patent US20180092930A1, “METHODS OF DIAGNOSING AND TREATING ABIRATERONE ACETATE- GLUCOCORTICOID -RESISTANT OR -SENSITIVE METASTATIC CASTRATION RESISTANT PROSTATE CANCER” (Janssen Pharmaceutica NV, priority 2016, published 2018).

Like-named read-outs stand apart in the source and are kept apart here.

The subject of series [1] is castration-resistant prostate cancer.
Another series has as its system CRPC. The note with it: pooled patients treated with AA or enzalutamide.

For the molecule `CC(=O)O[C@H]1CC[C@@]2(C)C(=CC[C@@H]3[C@@H]2CC[C@]2(C)C(c4cccnc4)=CC[C@@H]32)C1` [abiraterone acetate], in series [1] (ARV7-negative patients), the PSA response rate is recorded as 68%; the “PSA-PFS, median” value is “not reached”; the “clinical or radiographic progression-free survival, median” value is “not reached”; the “overall survival, median” value is listed as “not reached”. Besides, in series [1] (ARV7-positive patients), the PSA response rate is given as 0%; the “PSA-PFS, median” value was 1.3 months; the “clinical or radiographic progression-free survival, median” value is listed as 2.3 months; the “overall survival, median” value is recorded as 10.6 months. Moreover, the OS with CRPC (ARV7+ at baseline) is 8 months. Moreover, the OS entry with CRPC (ARV7- at baseline) was “not reached”.
Consider `CNC(=O)c1ccc(N2C(=S)N(c3ccc(C#N)c(C(F)(F)F)c3)C(=O)C2(C)C)cc1F` [enzalutamide], for which the figures for the OS in the series on CRPC (ARV7+ at baseline) and with CRPC (ARV7- at baseline) were 8 months and “not reached”, respectively.
